Converted amounts (≈) assume the structure as drawn. Non-standard residues stand in square brackets, D forms with d. Residues, ends and D or L forms follow the SMILES beside them. No end group written: not given here.
What was measured:
[1] = tested on: human red blood cells (hRBCs); assay type: cell-based; conditions: for MHC (minimum hemolytic concentration causing 5% hemolysis of hRBCs): red cells of human, 1 h
Procedure: The peptide hemolytic activity was evaluated against human red blood cells (hRBCs) using the Haemolysis Assay Kit (HaemoScan, Groningen, The Netherlands), following the manufacturer’s instructions. 180 μL of hRBC solution were incubated 1 h at 37 °C with 20 μL of serially diluted L- and D-CecB Q53 peptides (final concentrations of 5, 10, 25, 50, 100, 200 µM) in triplicate. As hemolysis positive and negative controls, hRBC solutions incubated, respectively, with 0.2% Triton X and PBS, were followed in parallel. After centrifugation 10 min at 10,000× g, each supernatant was diluted 1:10 in the Assay Buffer and read at 450 nm with a microplate reader.
Hemolysis was evaluated according to the following equation: Hemolysis (%)=ODCecB−OD0/ODCtrl−OD0×100, where ODCecB is the OD in the presence of the peptide, ODCtrl is the OD of treated controls (0.2% Triton X), and OD0 is the background absorbance. The experiment was performed at least twice.

[2] = tested on: P. aeruginosa ATCC 25668; test: CFU assay of medium over treated 24 h old biofilm; assay type: cell-based, Pseudomonas aeruginosa; conditions: for mean CFUs/mL decrement vs untreated control: 1 MIC, 1 h; for living bacterial cells in the medium, Mean ± SEM: 1 h treatment of 24 h-old biofilm with 1 MIC (2.2 μM), four experiments, control 2.67 ± 2.67 × 10^15
[3] = tested on: P. aeruginosa ATCC 25668 strain; test: Motility assay (swimming, swarming, twitching); assay type: cell-based, Pseudomonas aeruginosa; conditions: 1/2 MIC L-Q53 CecB or 1/4 MIC D-Q53 CecB; for effect on swimming motility: 0.3% agar LB plates; for effect on swarming motility: 0.5% agar LB plates; for effect on twitching motility (bacterial growth area): 1% agar LB plates
Procedure: The motility assay was performed as in [36], with minor modifications. […] Inocula were performed with a sterile toothpick (i) within the medium to detect swimming, (ii) on the top of the medium to detect swarming, and (iii) on the bottom of the plate to detect twitching. Bacteria grown and plated in the absence of any peptide were processed as negative controls. Plates were incubated at 30 °C (for swimming and swarming) or 37 °C (for twitching) and monitored for 24–48 h. Plate images were taken with a digital camera. Post-acquisition analyses were performed with Fiji, an open-source image-processing package based on ImageJ (http://fiji.sc/wiki/index.php, downloaded on 4 April 2022). Swimming, swarming, and twitching data were obtained by calculating the area of the growing zone over the total area of each plate. Values were expressed as percentages. Each type of motility was evaluated in at least four independent experiments, each with one replica per condition.

[4] = tested on: P. aeruginosa ATCC 27853 and ATCC 25668 strains; test: microbe, parasite or virus in culture; assay type: cell-based, Pseudomonas aeruginosa; conditions: ATCC 27853, 24 h
Procedure: The following strains were used: P. aeruginosa ATCC 27853, ATCC 25668, and PAO1-L (Lausanne subline). All strains were grown at 37 °C in Luria Bertani (LB) medium or in Luria Bertani Agar (LBA) plates.
The antibacterial activities of L- and D-Q53 CecB were evaluated by determining (i) the MIC and (ii) the MBC. Tobramycin (Merck) was used as an antibiotic control. (i) An overnight (ON) bacterial culture was diluted to 1 × 10^6 cells/mL in LB medium. 50 µL/well were seeded in sterile polypropylene 96-well plates (Corning, Corning, NY, USA) and added with 50 µL LB medium, containing serial dilutions of each compound (final concentrations of L- and D-Q53 CecB peptides from 1.1 to 35.2 µM; final concentrations of tobramycin from 0.26 to 17 μM; each condition in triplicate). Microbial suspensions in the growing medium (positive control) and wells with only the medium (negative controls) were processed in parallel. Plates were incubated 24 h at 37 °C with agitation (300 rpm), and the absorbance was measured at 600 nm in a microplate reader. The MIC was considered as the lowest concentration determining a delta optical density at 600 nm (ΔOD600) equal to 0 ± 0.05. The ΔOD600 was determined by subtracting the OD600 recorded at time 0 from that obtained after 24 h. Each experiment was performed at least three times. […] For each sample, 100 μL of 1:10, 1:100, and 1:1000 dilutions were plated on LBA plates, and colonies were counted after 24 h at 37 °C. […] Each experiment was performed at least twice.

[5] = tested on: P. aeruginosa ATCC 27853; test: CFU assay of medium over treated 24 h old biofilm; assay type: cell-based, Pseudomonas aeruginosa; conditions: for mean CFUs/mL decrement vs untreated control: 1 MIC, 1 h; for living bacterial cells in the medium, Mean ± SEM: 1 h treatment of 24 h-old biofilm with 1 MIC (2.2 μM), four experiments, control 3.06 ± 2.07 × 10^14
[6] = tested on: P. aeruginosa ATCC 25668 strain; test: EPS determination, phenol-sulfuric acid method; assay type: cell-based, Pseudomonas aeruginosa; conditions: 20 h incubation; 1/2 MIC L-Q53 CecB or 1/4 MIC D-Q53 CecB; OD490
Procedure: Experiments were performed in LB medium supplemented 2% glucose to enhance the EPS production, as in [46]. Five mL of bacterial cultures (1 × 10^6 cells/mL) were added to the same volume of the peptide at a dilution not-inhibiting the bacterial growth (final concentrations 1.1 and 0.55 µM for L- and D-Q53 CecB, respectively, as in Section 4.11) and incubated at 37 °C for 20 h with agitation (200 rpm). 10 mL of bacterial culture (5 × 10^5 cells/mL) without any peptide were grown in parallel. Samples were incubated at 37 °C for 20 h with agitation. Glucan levels were determined as in [46, 75] with some modifications. For each sample, 5 mL were centrifuged at 5000× g for 10 min, and supernatants were collected in clean tubes; pellets were washed twice in 2.5 mL autoclaved water and centrifuged at 5000× g for 10 min, collecting supernatants again. Three volumes of chilled absolute ethanol were added to the collected supernatants and placed at 4 °C ON to precipitate polysaccharides. After centrifugation at 10,000× g for 10 min, pellets were washed with chilled ethanol 70% and resuspended in 5 mL 0.1 M NaOH. Two mL of 5% aqueous solution of phenol and 5 mL of concentrated sulphuric acid were added. Mixtures were incubated 10 min at RT in the dark, vortexed 30 sec, placed in a water bath at 25 °C 20 min and read at 490 nm. The experiment was performed four times, each condition in duplicate.

Molecule | MHC (minimum hemolytic concentration causing 5% hemolysis of hRBCs) [1] [µM] | mean CFUs/mL decrement vs untreated control [2] | living bacterial cells in the medium, Mean ± SEM [2] | effect on swimming motility [3] | effect on swarming motility [3] | effect on twitching motility (bacterial growth area) [3] | MBC [4] [µM] | mean CFUs/mL decrement vs untreated control [5] | living bacterial cells in the medium, Mean ± SEM [5] | effect on water-soluble EPS production [6] | mean hemolysis ([1]; 100 µM) [%]
RWKIFKKIEKMGRNIRDGIVKAGPAIQVLGSAKAI-NH2 [L-Q53 CecB] | >200 | 10 orders of magnitude | 2.89 ± 2.38 × 10^5 CFUs/mL | not able to affect | not able to affect | no effect | 11 | 6 orders of magnitude | 7.03 ± 4.10 × 10^8 CFUs/mL | did not show any significant effect | –
CC[C@@H](C)[C@@H](NC(=O)[C@@H](C)NC(=O)[C@@H](CCCCN)NC(=O)[C@@H](C)NC(=O)[C@@H](CO)NC(=O)CNC(=O)[C@@H](CC(C)C)NC(=O)[C@H](NC(=O)[C@@H](CCC(N)=O)NC(=O)[C@H](NC(=O)[C@@H](C)NC(=O)[C@H]1CCCN1C(=O)CNC(=O)[C@@H](C)NC(=O)[C@@H](CCCCN)NC(=O)[C@H](NC(=O)[C@H](NC(=O)CNC(=O)[C@@H](CC(=O)O)NC(=O)[C@@H](CCCNC(=N)N)NC(=O)[C@H](NC(=O)[C@@H](CC(N)=O)NC(=O)[C@@H](CCCNC(=N)N)NC(=O)CNC(=O)[C@@H](CCSC)NC(=O)[C@@H](CCCCN)NC(=O)[C@@H](CCC(=O)O)NC(=O)[C@H](NC(=O)[C@@H](CCCCN)NC(=O)[C@@H](CCCCN)NC(=O)[C@@H](Cc1ccccc1)NC(=O)[C@H](NC(=O)[C@@H](CCCCN)NC(=O)[C@@H](Cc1c[nH]c2ccccc12)NC(=O)[C@H](N)CCCNC(=N)N)[C@H](C)CC)[C@H](C)CC)[C@H](C)CC)[C@H](C)CC)C(C)C)[C@H](C)CC)C(C)C)C(N)=O [D-Q53 CecB] (H-[dR][dW][dK][dI][dF][dK][dK][dI][dE][dK][dM]G[dR][dN][dI][dR][dD]G[dI][dV][dK][dA]G[dP][dA][dI][dQ][dV][dL]G[dS][dA][dK][dA][dI]-NH2; N-terminus and C-terminus assumed) | 100 | 7 orders of magnitude | 6.70 ± 6.6 × 10^8 CFUs/mL | not able to affect | not able to affect | significant reductions | 4.40 (≈ 17.1 µg/mL) | 4 orders of magnitude | 1.07 ± 1.06 × 10^10 CFUs/mL | significantly reduce | 5.9

From publication PMC10419416, “Fighting Pseudomonas aeruginosa Infections: Antibacterial and Antibiofilm Activity of D-Q53 CecB, a Synthetic Analog of a Silkworm Natural Cecropin B Variant” (International Journal of Molecular Sciences, 2023)
